Series [1] relates to human LAT1 and LAT2 highly expressing HEK 293 cell lines. The series can be described thus: Evaluation of LAT1 and LAT2-selective uptake. In kind it is cell-based. To be noted: (uptake in LAT1 cells / L-BPA uptake in LAT1 cells)/(uptake in LAT2 cells / L-BPA uptake in LAT2 cells); substrate concentration 0.1 mM; relative to L-BPA on the same day. As to the method: HEK 293 cells that stably highly express human LAT1 and LAT2 respectively were prepared according to the method described in the article of Khunweeraphong, N et al. (Journal of Pharmacology Science, 2012, vol. 119, pp 368-380). A shuttle vector DNA (LAT1: EX-H 4509-M02, LAT2: EX-U0514-M02, manufactured by GeneCopoeia) having ampicillin and neomycin resistance markers and having full-length cDNA of human LAT1 or LAT2 inserted under the promoter of cytomegalovirus (CMV) was constructed. This vector was transfected into HEK 293 cells by a method using Lipofectamine (registered trademark) 2000 (Invitrogen) in accordance with the manufacturer's instructions. Thereafter, the stably expressing cell clone of the transgene was selected by the limiting dilution method in the presence of 0.9 mg/mL Geneticin (registered trademark), and a cell clone in which the uptake of L-boronophenylalanine (L-BPA) was enhanced by about 2 to about 5 times as compared with HEK 293 cells before transfection was obtained. This cell was passaged and used for evaluation of LAT1 and LAT2-selective uptake.
As a method for evaluating cell uptake, the same method as in the article of Khunweeraphong, N et al. (Journal of Pharmacology Science, 2012, vol. 119, pp 368-380) was used. Each of the cells obtained in (1) was used for evaluation. Radioactive isotopes were not used, a substrate concentration was 0.1 mM, and 2 mM BCH (2-amino-2-norbonanecarboxylic acid) was used as an LAT1 and LAT2 inhibitor. The reacted cells were collected with 0.05% Tween 20 and the concentration of the 4-borono-phenylalanine derivative in the cell fluid was determined. Quantification of the 4-borono-phenylalanine derivative in cells was performed in accordance with the method described in the article of Hattori, Y, et al. (Sensors 2017, 17, 2436), using 2-(2-hydroxyphenyl)pyridine (boron sensor 5) as a boron sensor. In the evaluation of cell uptake, in consideration of variations between experiments, the cell uptake was evaluated as a value (LAT1 selectivity) relative to the uptake of L-BPA as a comparative object performed on the same day.
LAT1 selectivity=(quantitative value of uptake of the compound in LAT1 cells/quantitative value of uptake of control L-BPA in LAT1 cells)/(quantitative value of uptake of the compound in LAT2 cells/quantitative value of uptake of control L-BPA in LAT2 cells)

Series [2] is described as follows: Single dose toxicity test. In kind it is in vivo. To be noted: single tail vein injection, 250, 500 and 1000 mg/kg, 5 animals per group, observation period 8 days. Here is the method: In a beaker, 17.6 mL of 1 mol/L NaOH was put, and 24 mL of water for injection was further added and mixed. To this was added 2.52 g of D-sorbitol. After confirming complete dissolution, 17.1 mL of 1 mol/L hydrochloric acid was added to adjust the pH to 7.4 to 7.8. The mixture was transferred to a measuring cylinder, the beaker was washed with water for injection, and the washing liquid was transferred to the measuring cylinder. This operation was repeated as much as possible, and the volume of the liquid in the measuring cylinder was increased to 80 mL while the beaker was washed. The mixture was filtration-sterilized with a filter (Millex GV, pore size: 0.22 μm, Merck, sterilized disposable product), affording a 3.15% D-sorbitol solution.
On the other hand, 10.1 mL of a 1 mol/L aqueous sodium hydroxide solution was put in a beaker, and 13.8 mL of water for injection was further added and mixed. To this were added 2.30 g of test substance and 1.45 g of D-sorbitol. After confirming complete dissolution, 1.36 mL of 1 mol/L hydrochloric acid was added to adjust the pH to 7.4 to 7.8. The mixture was transferred to a measuring cylinder, the beaker was washed with water for injection, and the washing liquid was transferred to the measuring cylinder. […]

With `C[C@](N)(Cc1ccc(B(O)O)cc1F)C(=O)O` [Example 1, (S)-2-amino-3-(4-borono-2-fluorophenyl)-2-methylpropanoic acid], the LAT1 selectivity entry in series [1] is listed as “twice or more”. Further, the “change due to administration of the test substance (single dose toxicity)” value in series [2] is on record as “no serious change due to the administration of the test substance was observed in any of the administration groups”.
On to `C[C@@](N)(Cc1ccc(B(O)O)cc1F)C(=O)O` [Example 2, (R)-2-Amino-3-(4-borono-2-fluorophenyl)-2-methylpropanoic acid], for which the LAT1 selectivity result in series [1] was “twice or more”.
As to `Cc1cc(B(O)O)ccc1C[C@](C)(N)C(=O)O` [Example 3, (S)-2-Amino-3-(4-borono-2-methylphenyl)-2-methylpropanoic acid], the LAT1 selectivity result in series [1] is given as “twice or more”.
For the molecule `Cc1cc(B(O)O)ccc1C[C@@](C)(N)C(=O)O` [Example 4, (R)-2-Amino-3-(4-borono-2-methylphenyl)-2-methylpropanoic acid], the LAT1 selectivity entry in series [1] is “twice or more”.
Consider `C[C@](N)(Cc1ccc(B(O)O)cc1C(F)(F)F)C(=O)O` [Example 5, (S)-2-Amino-3-(4-borono-2-(trifluoromethyl)phenyl)-2-methylpropanoic acid], for which, in series [1], the LAT1 selectivity entry was “twice or more”.
Regarding `C[C@@](N)(Cc1ccc(B(O)O)cc1C(F)(F)F)C(=O)O` [Example 6, (R)-2-Amino-3-(4-borono-2-(trifluoromethyl)phenyl)-2-methylpropanoic acid], the LAT1 selectivity entry in series [1] is given as “twice or more”.
Regarding `COc1cc(B(O)O)ccc1C[C@](C)(N)C(=O)O` [Example 7, (S)-2-Amino-3-(4-borono-2-methoxyphenyl)-2-methylpropanoic acid], the LAT1 selectivity result in series [1] is listed as “twice or more”.
For `C[C@](N)(Cc1ccc(B(O)O)cc1Cl)C(=O)O` [Example 9, (S)-2-Amino-3-(4-borono-2-chlorophenyl)-2-methylpropanoic acid], the LAT1 selectivity result in series [1] is listed as “twice or more”. Besides, in series [2], the “change due to administration of the test substance (single dose toxicity)” value is reported as “no serious change due to the administration of the test substance was observed in any of the administration groups”.
On to `C[C@](N)(Cc1c(F)cc(B(O)O)cc1F)C(=O)O` [Example 11, (S)-2-Amino-3-(4-borono-2,6-difluorophenyl)-2-methylpropanoic acid], for which the LAT1 selectivity entry in series [1] is listed as “twice or more”.
For `C[C@](N)(Cc1cc(Cl)c(B(O)O)cc1F)C(=O)O` [Example 13, (S)-2-Amino-3-(4-borono-5-chloro-2-fluorophenyl)-2-methylpropanoic acid], the LAT1 selectivity entry in series [1] was “twice or more”.
On the same count and under the same terms, then `C[C@](N)(Cc1ccc(B(O)O)c(F)c1F)C(=O)O` [Example 14, (S)-2-Amino-3-(4-borono-2,3-difluorophenyl)-2-methylpropanoic acid], with “twice or more”.
Regarding `C[C@](N)(Cc1ccc(B(O)O)c(F)c1)C(=O)O` [Example 15, (S)-2-Amino-3-(4-borono-3-fluorophenyl)-2-methylpropanoic acid], the LAT1 selectivity entry in series [1] is recorded as “twice or more”.
On to `C[C@@](N)(Cc1ccc(B(O)O)c(F)c1)C(=O)O` [Example 16, (R)-2-Amino-3-(4-borono-3-fluorophenyl)-2-methylpropanoic acid], for which the LAT1 selectivity entry in series [1] was “twice or more”.
Regarding `Cc1cc(C[C@](C)(N)C(=O)O)ccc1B(O)O` [Example 17, (S)-2-Amino-3-(4-borono-3-methylphenyl)-2-methylpropanoic acid], in series [1], the LAT1 selectivity entry was “twice or more”.
With `C[C@](N)(Cc1cc(F)c(B(O)O)cc1Cl)C(=O)O` [Example 29, (S)-2-Amino-3-(4-borono-2-chloro-5-fluorophenyl)-2-methylpropanoic acid], the LAT1 selectivity result in series [1] is listed as “twice or more”.
`CSc1cc(B(O)O)ccc1C[C@](C)(N)C(=O)O` [Example 34, (S)-2-Amino-3-(4-borono-2-(methylthio)phenyl)-2-methylpropanoic acid]: in series [1], the LAT1 selectivity entry is listed as “twice or more”.
Still for that read-out and setting: then `C[C@](N)(Cc1ccc(B(O)O)cc1C(F)F)C(=O)O` [Example 35, (S)-2-Amino-3-(4-borono-2-(difluoromethyl)phenyl)-2-methylpropanoic acid], with “twice or more”; and `C[C@@](N)(Cc1ccc(B(O)O)cc1C(F)F)C(=O)O` [Example 36, (R)-2-Amino-3-(4-borono-2-(difluoromethyl)phenyl)-2-methylpropanoic acid], with “twice or more”; and `C[C@](N)(Cc1ccc(B(O)O)c(Cl)c1)C(=O)O` [Example 37, (S)-2-Amino-3-(4-borono-3-chlorophenyl)-2-methylpropanoic acid], with “twice or more”.
On the same count and under the same terms, then `N[C@@H](Cc1ccc(B(O)O)cn1)C(=O)O` [Example 44, (S)-2-Amino-3-(5-boronopyridin-2-yl)propanoic acid], with “twice or more”.
Take `Cc1cc(B(O)O)cnc1C[C@H](N)C(=O)O` [Example 49, (S)-2-Amino-3-(5-borono-3-methylpyridin-2-yl)propanoic acid]: in series [1], the LAT1 selectivity entry is on record as “twice or more”.
For the molecule `N[C@@H](Cc1ncc(B(O)O)cc1Cl)C(=O)O` [Example 50, (S)-2-Amino-3-(5-borono-3-chloropyridin-2-yl)propanoic acid], in series [1], the LAT1 selectivity result is “twice or more”.
As to `Cc1cc(C[C@H](N)C(=O)O)ncc1B(O)O` [Example 51, (S)-2-Amino-3-(5-borono-4-methylpyridin-2-yl)propanoic acid], in series [1], the LAT1 selectivity result was “twice or more”.
